Earlier results in patent publication US20100158905A1, “COMBINATION THERAPY OF ARTHRITIS WITH TRANILAST” (NUON THERAPEUTICS, INC., priority 2008, published 2010).

Test system: RA
Conditions: used in combination with methotrexate

Row | Compound | improvements in treating RA
1 | Adalimumab | marked improvements
2 | Etanercept | marked improvements
3 | infliximab: tumor necrosis factor (TNF) antagonist | marked improvements

Test system: rheumatoid arthritis
Conditions: usual maintenance dose

Row | Compound | Approximate time to benefit
4 | Cn1cnc([N+](=O)[O-])c1Sc1ncnc2nc[nH]c12 [Azathioprine] | 2-3 months
5 | CC(C)(S)[C@@H](N)C(=O)O [D-penicillamine] | 3-6 months
6 | CCN(CCO)CCCC(C)Nc1ccnc2cc(Cl)ccc12 (stereo not shown) [Hydroxychloroquine] | 2-6 months
7 | Cc1oncc1C(=O)Nc1ccc(C(F)(F)F)cc1 [Leflunomide] | 4-12 weeks (skewed earlier)
8 | CN(Cc1cnc2nc(N)nc(N)c2n1)c1ccc(C(=O)N[C@@H](CCC(=O)O)C(=O)O)cc1 [Methotrexate] | 1-2 months
9 | O=C(O)c1cc(/N=N/c2ccc(S(=O)(=O)Nc3ccccn3)cc2)ccc1O [Sulfasalazine] | 1-3 months
10 | Etanercept | A few days to 12 weeks
